Each structure is given as a SMILES string.

One data set deals with KRAS G12V (Homo sapiens, UniProt P01116, G12V). Description: GDP-GTP exchange assay (KRAS G12V).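 Also: one dagger IC50 up to 100 nM and two daggers above 100 nM up to 1 μM.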 The data set is classed as biochemical. As to conditions: bodipy-GDP/GppNHp exchange with SOS1; 3 h incubation after GppNHp-SOS1. As for the experimental part: (§1) The inhibitor potency of the exemplified compounds was determined in a fluorescence based guanine nucleotide exchange assay, which measures the exchange of bodipy-GDP (fluorescently labeled GDP) for GppNHp (Non-hydrolyzable GTP analog) to generate the active state of KRAS in the presence of SOS1 (guanine nucleotide exchange factor). Inhibitors were serially diluted in DMSO and a volume of 0.1 μL was transferred to the wells of a black low volume 384-well plate. 5 μL/well volume of bodipy-loaded KRAS G12D diluted to 2.5 nM in assay buffer (25 mM Hepes pH 7.5, 50 mM NaCl, 10 mM MgCl2 and 0.01% Brij-35) was added to the plate and pre-incubated with inhibitor for 4 h at r.t. Appropriate controls (enzyme with no inhibitor or with a G12D inhibitor) were included on the plate. The exchange was initiated by the addition of a 5 μL/well volume containing 1 mM GppNHp and 300 nM SOS1 in assay buffer. The 10 μL/well reaction concentration of the bodipy-loaded KRAS G12D, GppNHp, and SOS1 were 2.5 nM, 500 μM, and 150 nM, respectively. The reaction plates were incubated at r.t. for 2 h, a time estimated for complete GDP-GTP exchange in the absence of inhibitor. For the KRAS G12V mutant, similar guanine nucleotide exchange assays were used with 2.5 nM as final concentration for the bodipy loaded KRAS proteins and 3 h incubation after adding GppNHp-SOS1 mixture. A cyclic peptide described to selectively bind G12D mutant (Sakamoto et al., BBRC 484.3 (2017), 605-611) or internal compounds with confirmed binding were used as positive controls in the assay plates. Fluorescence intensities were measured on a PheraStar plate reader instrument (BMG Labtech) with excitation at 485 nm and emission at 520 nm.
KRAS G12V, sequence (P01116 1-188 isoform P01116-2 G12V): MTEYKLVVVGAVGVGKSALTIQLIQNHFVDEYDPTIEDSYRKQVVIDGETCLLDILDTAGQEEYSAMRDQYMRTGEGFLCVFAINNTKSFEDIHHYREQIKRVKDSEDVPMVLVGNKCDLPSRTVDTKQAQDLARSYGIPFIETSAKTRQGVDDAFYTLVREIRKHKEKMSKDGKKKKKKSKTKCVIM
(§2) Either GraphPad prism or Genedata Screener SmartFit was used to analyze the data. The IC50 values were derived by fitting the data to a four parameter logistic equation producing a sigmoidal dose-response curve with a variable Hill coefficient.
(§3) The symbol “⬆” indicates IC50 100 nM, “⬆⬆” indicates IC50 >100 nM but ≤1 μM; and “⬆⬆⬆” indicates IC50 is >1 μM but ≤5 μM, “⬆⬆⬆⬆” indicates IC50 is >5 μM but ≤10 μM. “NA” indicates IC50 not available.

The target in a further data set is KRAS G12D (Homo sapiens, UniProt P01116, G12D). Description: GDP-GTP exchange assay (KRAS G12D).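 Also: one dagger IC50 up to 100 nM and two daggers above 100 nM up to 1 μM.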 The data set is classed as biochemical. Conditions: bodipy-GDP/GppNHp exchange with SOS1; 4 h pre-incubation, 2 h reaction. As for the experimental part: as §1, §2, §3
KRAS G12D, sequence (P01116 1-188 isoform P01116-2 G12D): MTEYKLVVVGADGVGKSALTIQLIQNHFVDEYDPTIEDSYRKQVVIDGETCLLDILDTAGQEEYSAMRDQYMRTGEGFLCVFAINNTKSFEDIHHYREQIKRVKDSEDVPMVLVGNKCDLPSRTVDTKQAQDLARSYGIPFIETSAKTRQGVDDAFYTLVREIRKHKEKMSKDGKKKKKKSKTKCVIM
Data set [1] in a line: Caco2 assay (permeability, Papp A-B). Conditions: human, Caco-2, absorptive direction (A-B), 50 μM test compound, 4% BSA in receiver. The data set is classed as in vitro ADME. As for the experimental part: Caco-2 cells are grown at 37° C. in an atmosphere of 5% CO2 in DMEM growth medium supplemented with 10% (v/v) fetal bovine serum, 1% (v/v) nonessential amino acids, penicillin (100 U/mL), and streptomycin (100 μg/mL). Confluent cell monolayers are subcultured every 7 days or 4 days for Caco-2 by treatment with 0.05% trypsin containing […]. Caco-2 cells are seeded in 96-well Transwell plates. The seeding density for Caco-2 cells is 14,000 cells/well. DMEM growth medium is replaced every other day after seeding. Cell monolayers are used for transport assays between 22 and 25 days for Caco-2 cells.
Cell culture medium is removed and replaced with HBSS. To measure the TEER, the HBSS is added into the donor compartment (apical side) and receiver compartment (basolateral side). The TEER is measured by using a REMS Autosampler to ensure the integrity of the cell monolayers. Caco-2 cell monolayers with TEER values 300 Ω·cm^2 are used for transport experiments. To determine the Papp in the absorptive direction (A-B), solution of test compound (50 μM) in HBSS is added to the donor compartment (apical side), while HBSS solution with 4% BSA is added to the receiver compartment (basolateral side). The apical volume was 0.075 mL, and the basolateral volume is 0.25 mL. The incubation period is 120 min. at 37° C. in an atmosphere of 5% CO2. At the end of the incubation period, samples from the donor and receiver sides are removed and an equal volume of MeCN is added for protein precipitation. The supernatants are collected after centrifugation (3000 rpm, Allegra X-14R Centrifuge from Beckman Coulter, Indianapolis, IN) for LCMS analysis. The permeability value is determined according to the equation:
Papp(cm/s)=(F*VD)/(SA*MD),
where the flux rate (F, mass/time) is calc. from the slope of cumulative amounts of compound of interest on the receiver side, SA is the surface area of the cell membrane, VD is the donor volume, and MD is the initial amount of the solution in the donor chamber.
The symbol “+” indicates a Caco-2 value of ≤0.5, “++” indicates a Caco-2 value of >0.5 but ≤1; and “+++” indicates a Caco-2 value of >1. “NA” indicates Caco-2 value not available.
(Passage across Caco-2 layers is used to estimate intestinal permeability.)

With `Cc1nc2c(F)c(-c3cccc(Cl)c3Cl)c(CCC#N)cc2c2c1cc([C@H]1[C@H]3C[C@H](CN(c4ccnc(OCC5CC5)c4)C3)N1C(=O)C1CC1)n2[C@H]1[C@H]2CN[C@@H]1C2` (atropisomer, axis not shown; (Ra)) [Example 82, 3-((Ra)-1-((1R,4R,5S)-2-azabicyclo[2.1.1]hexan-5-yl)-2-((1S,5R,7R)-6-(cyclopropanecarbonyl)-3-(2-(cyclopropylmethoxy)pyridin-4-yl)-3,6-diazabicyclo[3.2.1]octan-7-yl)-7-(2,3-dichlorophenyl)-6-fluoro-4-methyl-1H-pyrrolo[3,2-c]quinolin-8-yl)propanenitrile], the “G12V_exchange (KRAS_G12V exchange assay IC50)” value (from here on “G12V_exchange”) at KRAS G12V was “†”. In addition, the “G12D_exchange (KRAS_G12D exchange assay IC50)” value (from here on “G12D_exchange”) on KRAS G12D is given as “†”.
For `Cc1nc2c(F)c(-c3cccc(Cl)c3Cl)c(CCC#N)cc2c2c1cc([C@H]1[C@H]3C[C@H](CN(c4ncc(C)n4C)C3)N1C(=O)C1CC1)n2[C@H]1[C@H]2CN[C@@H]1C2` (atropisomer, axis not shown; (Ra)) [Example 101, 3-((Ra)-1-((1R,4R,5S)-2-azabicyclo[2.1.1]hexan-5-yl)-2-((1S,5R,7R)-6-(cyclopropanecarbonyl)-3-(1,5-dimethyl-1H-imidazol-2-yl)-3,6-diazabicyclo[3.2.1]octan-7-yl)-7-(2,3-dichlorophenyl)-6-fluoro-4-methyl-1H-pyrrolo[3,2-c]quinolin-8-yl)propanenitrile], the “G12V_exchange” value at KRAS G12V is recorded as “†”. Also, at KRAS G12D, the “G12D_exchange” value is “†”.
Regarding `Cc1nc2c(F)c(-c3cccc(Cl)c3Cl)c(CCC#N)cc2c2c1cc([C@H]1[C@H]3C[C@H](CN(c4ncc(C(F)F)s4)C3)N1C(=O)C1CC1)n2[C@H]1[C@H]2CN[C@@H]1C2` (atropisomer, axis not shown; (Ra)) [Example 102, 3-((Ra)-1-((1R,4R,5S)-2-azabicyclo[2.1.1]hexan-5-yl)-2-((1S,5R,7R)-6-(cyclopropanecarbonyl)-3-(5-(difluoromethyl)thiazol-2-yl)-3,6-diazabicyclo[3.2.1]octan-7-yl)-7-(2,3-dichlorophenyl)-6-fluoro-4-methyl-1H-pyrrolo[3,2-c]quinolin-8-yl)propanenitrile], the “G12V_exchange” value at KRAS G12V was “†”. Besides, on KRAS G12D, the “G12D_exchange” value was “†”.
For `Cc1nc2c(F)c(-c3cccc(Cl)c3Cl)c(CCC#N)cc2c2c1cc([C@H]1[C@H]3C[C@H](CN(C(=O)NCC(F)(F)F)C3)N1C(=O)C1CC1)n2[C@H]1[C@H]2CN[C@@H]1C2` (atropisomer, axis not shown; (Ra)) [Example 109, (1 S,5R,7R)-7-((Ra)-1-((1R,4R,5S)-2-Azabicyclo[2.1.1]hexan-5-yl)-8-(2-cyanoethyl)-7-(2,3-dichlorophenyl)-6-fluoro-4-methyl-1H-pyrrolo[3,2-c]quinolin-2-yl)-6-(cyclopropanecarbonyl)-N-(2,2,2-trifluoroethyl)-3,6-diazabicyclo[3.2.1]octane-3-carboxamide], the “G12V_exchange” value at KRAS G12V is on record as “†”. Moreover, the “G12D_exchange” value at KRAS G12D is reported as “†”.
On to `Cc1nc2c(F)c(-c3cccc(Cl)c3Cl)c(CCC#N)cc2c2c1cc(C1C3CC(CN(C4CCCCC4)C3)N1C(=O)C1CC1)n2C1C2CNC1C2` (atropisomer, axis not shown; (Ra)) [Example 114, 3-((Ra)-1-((1R,4R,5S)-2-Azabicyclo[2.1.1]hexan-5-yl)-2-((1R,5R,7R)-3-cyclohexyl-6-(cyclopropanecarbonyl)-3,6-diazabicyclo[3.2.1]octan-7-yl)-7-(2,3-dichlorophenyl)-6-fluoro-4-methyl-1H-pyrrolo[3,2-c]quinolin-8-yl)propanenitrile], for which, on KRAS G12V, the “G12V_exchange” value is “†”. The “G12D_exchange” value at KRAS G12D is reported as “†”.
Turning to `Cc1nc2c(F)c(-c3cccc(Cl)c3Cl)c(CCC#N)cc2c2c1cc([C@H]1[C@H]3C[C@H](CN(c4ccc(C(F)(F)F)cc4)C3=O)N1C(=O)C1CC1)n2[C@H]1[C@H]2CN[C@@H]1C2` (atropisomer, axis not shown; (Ra)) [Example 120a, 3-((Ra)-1-((1R,4R,5S)-2-Azabicyclo[2.1.1]hexan-5-yl)-2-((1R,5R,7R)-6-(cyclopropanecarbonyl)-2-oxo-3-(4-(trifluoromethyl)phenyl)-3,6-diazabicyclo[3.2.1]octan-7-yl)-7-(2,3-dichlorophenyl)-6-fluoro-4-methyl-1H-pyrrolo[3,2-c]quinolin-8-yl)propanenitrile], the “G12V_exchange” value at KRAS G12V is listed as “†”. Moreover, the “G12D_exchange” value on KRAS G12D was “††”.
Taken in the same sequence, the figures for `Cc1nc2c(F)c(-c3cccc(Cl)c3Cl)c(CCC#N)cc2c2c1cc([C@H]1[C@H]3C[C@H](C(=O)N(c4ccc(C(F)(F)F)cc4)C3)N1C(=O)C1CC1)n2[C@H]1[C@H]2CN[C@@H]1C2` (atropisomer, axis not shown; (Ra)) [Example 120b, 3-((Ra)-1-((1R,4R,5S)-2-Azabicyclo[2.1.1]hexan-5-yl)-2-((1S,5R,7R)-6-(cyclopropanecarbonyl)-4-oxo-3-(4-(trifluoromethyl)phenyl)-3,6-diazabicyclo[3.2.1]octan-7-yl)-7-(2,3-dichlorophenyl)-6-fluoro-4-methyl-1H-pyrrolo[3,2-c]quinolin-8-yl)propanenitrile] were “†” and “†”.
The like results for `[2H]C1([2H])[C@@H]2C[C@H](CN1c1ncc(C(C)C)s1)N(C(=O)C1CC1)[C@H]2c1cc2c(C)nc3c(F)c(-c4cccc(Cl)c4Cl)c(CCC#N)cc3c2n1[C@H]1[C@H]2CN[C@@H]1C2` (atropisomer, axis not shown; (Ra)) [Example 123, 3-((Ra)-1-((1R,4R,5S)-2-Azabicyclo[2.1.1]hexan-5-yl)-2-((1 S,5R,7R)-6-(cyclopropanecarbonyl)-3-(5-isopropylthiazol-2-yl)-3,6-diazabicyclo[3.2.1]octan-7-yl-2,2-d2)-7-(2,3-dichlorophenyl)-6-fluoro-4-methyl-1H-pyrrolo[3,2-c]quinolin-8-yl)propanenitrile] were, in that order, “†” and “††”.
With `COC(=O)N1[C@@H]2C[C@@H](CN(c3nccnc3OC)C2)[C@@H]1c1cc2c(C)nc3c(F)c(-c4cccc(Cl)c4Cl)c(CCC#N)cc3c2n1[C@H]1[C@H]2CN[C@@H]1C2` (atropisomer, axis not shown; (Ra)) [Example 125, Methyl (1 S,5R,7R)-7-((Ra)-1-((1R,4R,5S)-2-azabicyclo[2.1.1]hexan-5-yl)-8-(2-cyanoethyl)-7-(2,3-dichlorophenyl)-6-fluoro-4-methyl-1H-pyrrolo[3,2-c]quinolin-2-yl)-3-(3-methoxypyrazin-2-yl)-3,6-diazabicyclo[3.2.1]octane-6-carboxylate], on KRAS G12V, the “G12V_exchange” value is “†”. The compound further had an apparent permeability from apical to basolateral (Papp A→B) at 120 min, 50 μM in data set [1] of over 10 nm/s.

By Papp A→B is commonly meant how fast a substance crosses the layer from the apical side.
